Assay results taken from PubChem BioAssay (NCI).
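Each compound was tested at five concentrations against cells in 96-well plates for 48 hours. GI50 is the concentration that inhibits growth by half. TGI is the concentration that stops growth completely.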

How the values were obtained:
Experiment in all cases: NCI-60 cell line screen, 48 h
OVCAR-3 ovarian = test system: OVCAR-3 ovarian
OVCAR-8 ovarian = test system: OVCAR-8 ovarian
SF-295 CNS = test system: SF-295 CNS
SF-539 CNS = test system: SF-539 CNS
RXF 393 renal = test system: RXF 393 renal
786-0 renal = test system: 786-0 renal
RPMI-8226 leukemia = test system: RPMI-8226 leukemia
HOP-62 NSCLC = test system: HOP-62 NSCLC
PC-3 prostate = test system: PC-3 prostate
MDA-N = test system: MDA-N

SMILES	TGI (OVCAR-3 ovarian) [µM]	TGI (OVCAR-8 ovarian) [µM]	TGI (SF-295 CNS) [µM]	TGI (SF-539 CNS) [µM]	TGI (RXF 393 renal) [µM]	TGI (786-0 renal) [µM]	TGI (RPMI-8226 leukemia) [µM]	TGI (HOP-62 NSCLC) [µM]	TGI (PC-3 prostate) [µM]	TGI (MDA-N) [µM]	GI50 (HOP-62 NSCLC) [µM]	GI50 (OVCAR-3 ovarian) [µM]	GI50 (OVCAR-8 ovarian) [µM]	GI50 (SF-295 CNS) [µM]	GI50 (PC-3 prostate) [µM]	GI50 (SF-539 CNS) [µM]	GI50 (RXF 393 renal) [µM]	GI50 (RPMI-8226 leukemia) [µM]
CN=C(/N=c1\ssc(=NC)n1C)N(C)C	> 100	> 100	> 100	> 100	> 100	> 100	> 100	–	–	–	–	–	–	–	–	–	–	–
C=CCOn1c(C=C)nc2ccc(C)cc21	40.9	> 100	82.6	–	–	32.9	24.9	78.3	31	35.7	–	–	–	–	–	–	–	–
C=C(C)CC1(O[Si](C)(C)C)C(=O)C(OCC)=C1OCC (stereo not drawn)	> 100	> 100	> 100	> 100	–	> 100	–	> 100	> 100	–	–	–	–	–	–	–	–	–
C/C(=N\Nc1nc2cc(C(F)(F)F)ccc2s1)c1ccccn1	8.85	1.93	5.19	14.3	12.5	5.5	> 85.2	13.7	–	14.7	–	–	–	–	–	–	–	–
CC(C)(C)CC(C)(C)c1cc(O)c(O)c(CN2CCCCC2)c1	28	33.1	32.3	–	29.2	26.7	30.6	30.1	26.9	28.3	–	–	–	–	–	–	–	–
CN1CC2=C(NC(=S)NC2c2ccccc2)/C(=C/c2ccccc2)C1 (stereo not drawn)	> 100	> 10	> 100	> 100	–	> 100	> 100	> 100	> 100	> 100	–	–	–	–	–	–	–	–
COc1ccc2[nH]c(O)c(/C=c3/cc4c(c(-c5ccc(F)c(OC)c5)n3)=Nc3ccccc3-4)c2c1	3.58	11.8	6.51	3.37	3.01	–	5.53	4.88	38.4	–	2.42	1.99	3.22	2.26	8.11	1.86	1.53	2.04
COC[C@@H](N=Cc1ccc([N+](=O)[O-])cc1)C(C)C	–	> 100	> 100	–	> 100	> 100	> 100	–	> 100	> 100	–	–	–	–	–	–	–	–
O=C(Nc1ccccc1C(=O)NCc1ccccc1)/C(=C/c1ccccc1)NC(=O)c1ccccc1	> 100	> 100	> 100	> 100	> 100	> 100	> 100	> 100	> 100	–	–	–	–	–	–	–	–	–
Cn1c(=O)oc2nc(-c3ccccc3)cc(C(F)(F)F)c21	> 100	> 100	> 100	> 100	–	> 100	> 100	> 100	> 100	> 100	–	–	–	–	–	–	–	–
COc1ccc(C(=O)CC(c2ccccc2)[C@H]2C(c3ccc(OC)cc3)=Nc3c(nc(SC)n(C)c3=O)NC2c2ccccc2)cc1 (stereo partly drawn)	> 100	–	> 100	> 100	> 100	> 100	> 100	> 100	> 100	> 100	–	–	–	–	–	–	–	–
CCN(CC)C(=S)SS(=O)(=O)c1cccc(N)c1	> 100	> 100	> 100	> 100	> 100	> 100	> 100	> 100	–	> 100	–	–	–	–	–	–	–	–
COc1ccc(-c2oc3cc(O)cc(O)c3c(=O)c2OC)cc1	60.9	> 100	> 100	–	–	–	69.2	> 100	> 100	> 100	–	–	–	–	–	–	–	–
CCN=C1C=CC(=C(c2ccc(N(CC)CC)cc2)c2ccc(N(CC)CC)cc2)c2ccccc21	–	–	–	–	0.384	–	0.0702	0.846	–	–	0.159	–	–	–	–	–	0.0585	0.0233
Cc1ccc(S(=O)CC(CF)OCn2cc(C)c(=O)[nH]c2=O)cc1 (stereo not drawn)	> 100	> 100	> 100	> 100	–	> 100	> 100	> 100	> 100	> 100	–	–	–	–	–	–	–	–
CC(C)(C)OC(=O)NCC(CNC(=O)OC(C)(C)C)c1nc(C(N)=O)cs1	> 100	> 100	> 100	> 100	> 100	> 100	–	> 100	> 100	> 100	–	–	–	–	–	–	–	–
COc1cccc(C=O)c1[O-].[O]=[U](=[O])([OH2+])[OH2+]	49.4	56.2	78.6	64.9	94.1	71.9	> 100	> 100	–	–	–	–	–	–	–	–	–	–
C/C(=N\Nc1nc2ccccc2n1C)c1cc2ccccc2cn1	–	4.24	5.39	14.5	7.7	3.82	1.63	> 26.3	> 20.7	16.6	–	–	–	–	–	–	–	–
CCOC(=O)c1cc(C)nc2c1c(=O)n(-c1ccccc1)c(=O)n2CCCCN1CCN(c2ccccc2)CC1	–	> 100	> 100	–	> 100	> 100	77.3	> 100	> 100	–	–	–	–	–	–	–	–	–
C=CCC1C(O[Si](C)(C)C(C)(C)C)C(CO[Si](C)(C)C(C)(C)C)OC1n1ccc(=O)[nH]c1=O (stereo not drawn)	3.34	3.41	3.59	3.03	–	2.44	4.89	–	3.72	2.89	–	–	–	–	–	–	–	–
COc1cc(C2C3=C(COC3=O)Oc3cc4c(cc32)OCO4)cc(OC)c1O (stereo not drawn)	19.8	1.05	15.4	< 0.0148	–	15.5	> 41.9	15.2	4.67	–	–	–	–	–	–	–	–	–
COc1ccc(OC)c(SC(CC(=O)c2ccccc2)c2ccccc2)c1 (stereo not drawn)	16.4	28.7	31.6	15.7	31.1	29.2	–	39.8	33.9	–	–	–	–	–	–	–	–	–
Cc1ccc(S(=O)(=O)Nn2c(O)c(C#N)c(-c3ccc(Cl)cc3)c(C#N)c2=O)cc1	–	> 100	> 100	> 100	> 100	> 100	> 100	> 100	> 100	> 100	–	–	–	–	–	–	–	–

SMILES	TGI (OVCAR-3 ovarian) [µM]	TGI (OVCAR-8 ovarian) [µM]	TGI (SF-295 CNS) [µM]	TGI (SF-539 CNS) [µM]	TGI (RXF 393 renal) [µM]	TGI (786-0 renal) [µM]	TGI (RPMI-8226 leukemia) [µM]	TGI (HOP-62 NSCLC) [µM]	TGI (PC-3 prostate) [µM]	TGI (MDA-N) [µM]	GI50 (HOP-62 NSCLC) [µM]	GI50 (OVCAR-3 ovarian) [µM]	GI50 (OVCAR-8 ovarian) [µM]	GI50 (SF-295 CNS) [µM]	GI50 (PC-3 prostate) [µM]	GI50 (SF-539 CNS) [µM]	GI50 (RXF 393 renal) [µM]	GI50 (RPMI-8226 leukemia) [µM]
CCOP(=O)(OCC)/C(=C/c1cccs1)CC(C)=O	> 100	> 100	> 100	> 100	> 100	> 100	–	> 100	> 100	> 100	–	–	–	–	–	–	–	–
O=C(CCN1CCN2c3ccccc3CCC2C1)c1ccc(F)cc1 (stereo not drawn)	71.4	> 100	> 100	39.9	43.3	43.6	> 100	52.8	> 100	–	–	–	–	–	–	–	–	–
COc1cc2cc(C(=O)N3CC(COS(C)(=O)=O)c4ccc(O)cc43)[nH]c2c(OC)c1OC (stereo not drawn)	0.000616	0.149	< 0.0001	< 0.0001	< 0.0001	0.0106	–	0.00198	–	–	–	–	–	–	–	–	–	–
O=C(O)c1ccccc1N=Cc1ccc(N(CCCl)CCCl)cc1	> 100	> 100	> 100	> 100	> 73.2	–	> 100	–	–	–	–	–	–	–	–	–	–	–
CC(C)C(C/C=C1\CC(CO)(COC(=O)C2CCCCC2)OC1=O)C(C)C (stereo not drawn)	35.7	35.8	33.2	36.3	35.4	28.9	–	27.5	37.2	59.3	–	–	–	–	–	–	–	–
CN(C)/N=N/c1nc2c(c(=O)n(C)c(=O)n2C)n1CC(O)CO (stereo not drawn)	> 100	> 100	> 100	–	> 100	> 100	> 100	> 100	> 100	> 100	–	–	–	–	–	–	–	–
O=C(N/N=C/C=C/c1ccccc1)c1ccccc1Nc1ccccc1C(=O)N/N=C/C=C/c1ccccc1	> 100	> 100	> 100	–	> 100	> 100	> 100	70.4	> 100	> 100	–	–	–	–	–	–	–	–
CC1(C)CC(=O)C2(CC(CSc3ccccc3)C(CS(=O)(=O)c3ccccc3)C2)C(=O)C1 (stereo not drawn)	> 100	> 100	> 100	> 100	> 100	> 100	> 100	> 100	> 100	–	–	–	–	–	–	–	–	–
Cc1ccccc1-c1nc2c(C(=O)NCCN(C)C)cccc2[nH]1	> 100	> 100	> 100	> 100	> 100	–	73.4	> 87.3	–	–	–	–	–	–	–	–	–	–
Cc1cc(=O)[nH]c(NN2C(Cl)C(=O)C2c2ccc([N+](=O)[O-])cc2)n1 (stereo not drawn)	20.6	82.5	–	27	14.1	–	30.9	23	–	–	–	–	–	–	–	–	–	–
O=[N+]([O-])c1cccc(N=Nc2c(O)c(S(=O)(=O)O)cc3cc(S(=O)(=O)O)ccc23)c1	> 100	> 100	> 100	> 100	> 100	> 100	–	> 100	> 100	> 100	–	–	–	–	–	–	–	–
Cn1c(-c2ccc(/C=N/NC(=S)N/N=C/c3ccc(-c4c[n+]5ccsc5n4C)cc3)cc2)c[n+]2ccsc12	–	> 100	> 100	> 100	–	> 100	> 100	> 100	> 100	> 100	–	–	–	–	–	–	–	–
c1ccc(CN2CCC(Nc3ccccc3)(c3nnnn3Cc3ccccc3)CC2)cc1	–	> 100	44.8	41.5	73.8	60.6	> 100	> 100	–	–	–	–	–	–	–	–	–	–
COc1cccc(N[C@@H]2c3cc4c(cc3C(c3cc(OC)c(O)c(OC)c3)[C@H]3C(=O)OCC32)OCO4)c1 (stereo partly drawn)	68.6	> 23.1	2.5	2.52	7.12	–	2.08	0.671	–	–	–	–	–	–	–	–	–	–
O=c1oc(C(C(F)(F)F)C(F)(F)F)nc2ccccc12	> 100	> 100	> 100	> 100	> 100	> 100	> 100	> 100	> 100	–	–	–	–	–	–	–	–	–
NCc1cccc(O)c1O	> 100	> 100	> 100	–	> 100	> 100	> 100	> 100	–	–	–	–	–	–	–	–	–	–
O=C1NC(=O)C(C(CC(=O)c2ccc(Cl)cc2)c2ccc(Cl)cc2)C(=O)N1 (stereo not drawn)	> 100	> 100	> 100	> 100	–	> 100	> 100	> 100	> 100	> 100	–	–	–	–	–	–	–	–
Cc1ccc(S(=O)(=O)Nc2nnc(S(N)(=O)=O)s2)cc1	> 100	> 100	> 100	–	> 100	> 100	> 100	> 100	–	> 100	–	–	–	–	–	–	–	–
CC(C)(C)n1c(=O)[nH]c(=O)n1C(C)(C)C	> 100	> 100	> 100	> 100	> 100	> 100	–	> 100	> 100	> 100	–	–	–	–	–	–	–	–
O=c1c(-c2ccccc2)c(SCCO)n(-c2ccccc2)c(=S)n1-c1ccccc1	> 100	> 100	> 100	–	–	> 100	> 100	> 100	> 100	> 100	–	–	–	–	–	–	–	–
C/C(=N\NC(=S)N(C)C)c1cccnn1	> 100	> 100	> 100	1.65	–	> 100	> 100	> 100	> 100	> 74.2	–	–	–	–	–	–	–	–
CN(C)CCn1c(CO)nc2c1c(=O)n(C)c(=O)n2C	> 100	> 100	> 100	> 100	> 100	> 100	> 100	> 100	> 100	–	–	–	–	–	–	–	–	–
C=C(C)[C@H]1C2=CC(C)=C(O2)[C@@H](O[C@@H]2c3oc(cc3C)[C@H](C(=C)C)[C@H]3C=C(CC[C@H]2C(=C)C)C(=O)O3)[C@H](C(=C)C)CCC2=C[C@H]1OC2=O	> 100	> 100	> 100	–	–	> 100	> 100	> 100	> 100	> 100	–	–	–	–	–	–	–	–
